Source: patent publication US9371265B2, “Compositions and methods related to inhibitors of JAK kinase” (EP PHARMA, INC., priority 2012, dated 2016)
“And” between values parts separate entries of the source, which are not always exact repeats. Equal entries are not always repeated.

Legend:
SRC = SRC (Homo sapiens, UniProt P12931); test: Kinase panel: SRC; type: biochemical; settings: 10 μM EP009
Method: (§1) Achieving JAK3 selectivity remains a significant challenge in the development of new small molecules for the treatment of cancer and immune-derived diseases. As such, the inventors employed cell-based screening assays of small-molecule libraries based upon the chemical scaffold of the established JAK3 inhibitor NC1153 (Stepkowski et al., J Immunol. (2005), 175(7):4236-4246) EP009 (FIG. 2A) was selected as a lead compound due to improved intrinsic stability (>95% purity in various solvents at 37° C. for 24 hours; FIG. 3) and high-degree of JAK3 selectivity. To test JAK3 versus JAK2 specificity of EP009, the IL-2/JAK3-dependent Kit225, and IL-3/JAK2-dependent BaF/3 cell lines were used. Kit225 and BaF/3 cells growing in the presence of IL-2 or IL-3, respectively, were treated with ascending concentrations of EP009 for 12 hours and cellular JAK3 and JAK2 tyrosine phosphorylation levels detected by Western blot analysis (FIGS. 2B and 2C). Following densitometric analysis, EP009 was determined to dose-dependently reduce IL-2-mediated JAK3 tyrosine phosphorylation with a cellular 50% inhibitory concentration (IC50) between 10 and 20 μM (FIG. 2B). […] To globally evaluate specificity, the inhibitory activity of EP009 was measured against a panel of protein kinases distributed throughout the kinome using the scanEDGE profiling service (KINOMEscan). […]

TIE2 = TIE2 (Homo sapiens, UniProt Q02763); test: Kinase panel: TIE2; type: biochemical; settings: 10 μM EP009
Method: as §1

RIOK2 = RIOK2 (Homo sapiens, UniProt Q9BVS4); test: Kinase panel: RIOK2; type: biochemical; settings: 10 μM EP009
Method: as §1

PIK3C2B = PIK3C2B (Homo sapiens, UniProt O00750); test: Kinase panel: PIK3C2B; type: biochemical; settings: 10 μM EP009
Method: as §1

PAK4 = PAK4 (Homo sapiens, UniProt O96013); test: Kinase panel: PAK4; type: biochemical; settings: 10 μM EP009
Method: as §1

BRAF(V600E) = BRAF(V600E) (Homo sapiens, UniProt P15056, V600E); test: Kinase panel: BRAF(V600E); type: biochemical; settings: 10 μM EP009
Method: as §1

MLK1 = MLK1 (Homo sapiens, UniProt P80192); test: Kinase panel: MLK1; type: biochemical; settings: 10 μM EP009
Method: as §1

AURKA = AURKA (Homo sapiens, UniProt O14965); test: Kinase panel: AURKA; type: biochemical; settings: 10 μM EP009
Method: as §1

p38-beta = p38-beta (Homo sapiens, UniProt Q15759); test: Kinase panel: p38-beta; type: biochemical; settings: 10 μM EP009
Method: as §1

TGFBR1 = TGFBR1 (Homo sapiens, UniProt P36897); test: Kinase panel: TGFBR1; type: biochemical; settings: 10 μM EP009
Method: as §1

PRKCE = PRKCE (Homo sapiens, UniProt Q02156); test: Kinase panel: PRKCE; type: biochemical; settings: 10 μM EP009
Method: as §1

KIT(V559D, T670I) = KIT(V559D, T670I) (Homo sapiens, UniProt P10721, T670I/V559D); test: Kinase panel: KIT(V559D, T670I); type: biochemical; settings: 10 μM EP009
Method: as §1

[1] = Oral pharmacokinetics in rats (plasma, LC-MS/MS); type: in vivo, Sprague Dawley rats; settings: single oral dose of 200 mg/kg
Method: FIGS. 9A-9B Pharmacokinetics and efficacy of EP009 in vivo. (A) Sprague Dawley rats were administered EP009 by oral gavage (200 mg/kg) and pharmacokinetics measured by analysis of plasma concentrations at indicated time points. Values represent mean concentrations, while error bars represent the standard deviation (n=5). (B) Therapeutic study of EP009 in SU-DHL-1 model in SCID/NOD mice.
EP009 (200 mg/kg) was administered orally to Sprague Dawley rats (Texas Animal Specialties) of ˜200 g weight (n=5) after an overnight fast. Blood (˜200 μl) was drawn at 0.5, 1, 2, 4, 8 and 24 hours after dosing and plasma was collected and snap-frozen in liquid nitrogen. EP009 plasma concentrations were determined by a liquid chromatography tandem mass spectrometry (LC-MS/MS) system. This system included a HPLC (Shimadzu Scientific Corporation) with an ACE C18 column (50×2.1 mm, 5 um) and an API-4000 (triple-quadruple) mass spectrometer (ABSciex, Inc) with an electrospray ionization source. A positive multiple reaction monitoring (MRM) scan was applied. The mobile phase A and B used in this study were 0.1% formic acid in 5 mM ammonium acetate and 0.1% formic acid in 100% acetonitrile. Plasma samples (50 μL) were mixed with 50 μL of blank plasma and 300 μL of internal standard solution (Verapamil, 20 ng/mL in 100% acetonitrile). After vortexing for 1 min and centrifuging for 5 min at 16,000×g, 300 μL supernatants were analyzed by LC-MS/MS. The limit of quantitation was 1 ng/mL of EP009 in plasma and the calibration range was from 1 to 2000 ng/mL.

RAF1 = RAF1 (Homo sapiens, UniProt P04049); test: Kinase panel: RAF1; type: biochemical; settings: 10 μM EP009
Method: as §1

MEK2 = MEK2 (Homo sapiens, UniProt P36507); test: Kinase panel: MEK2; type: biochemical; settings: 10 μM EP009
Method: as §1

ERBB2 = ERBB2 (Homo sapiens, UniProt P04626); test: Kinase panel: ERBB2; type: biochemical; settings: 10 μM EP009
Method: as §1

EGFR = EGFR (Homo sapiens, UniProt P00533); test: Kinase panel: EGFR; type: biochemical; settings: 10 μM EP009
Method: as §1

Chain of AURKA (O14965 whole entry): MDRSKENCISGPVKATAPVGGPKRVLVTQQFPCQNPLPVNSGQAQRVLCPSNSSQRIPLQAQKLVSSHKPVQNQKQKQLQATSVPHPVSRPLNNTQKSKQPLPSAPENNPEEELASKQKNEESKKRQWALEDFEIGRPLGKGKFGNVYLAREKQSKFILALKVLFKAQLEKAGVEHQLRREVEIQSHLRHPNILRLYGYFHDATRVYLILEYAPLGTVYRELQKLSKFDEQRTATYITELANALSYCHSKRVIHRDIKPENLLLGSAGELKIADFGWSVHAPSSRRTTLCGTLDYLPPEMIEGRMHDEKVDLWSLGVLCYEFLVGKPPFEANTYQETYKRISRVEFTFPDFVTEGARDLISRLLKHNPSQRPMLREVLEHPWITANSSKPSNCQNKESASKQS
Chain of EGFR (P00533 25-1210): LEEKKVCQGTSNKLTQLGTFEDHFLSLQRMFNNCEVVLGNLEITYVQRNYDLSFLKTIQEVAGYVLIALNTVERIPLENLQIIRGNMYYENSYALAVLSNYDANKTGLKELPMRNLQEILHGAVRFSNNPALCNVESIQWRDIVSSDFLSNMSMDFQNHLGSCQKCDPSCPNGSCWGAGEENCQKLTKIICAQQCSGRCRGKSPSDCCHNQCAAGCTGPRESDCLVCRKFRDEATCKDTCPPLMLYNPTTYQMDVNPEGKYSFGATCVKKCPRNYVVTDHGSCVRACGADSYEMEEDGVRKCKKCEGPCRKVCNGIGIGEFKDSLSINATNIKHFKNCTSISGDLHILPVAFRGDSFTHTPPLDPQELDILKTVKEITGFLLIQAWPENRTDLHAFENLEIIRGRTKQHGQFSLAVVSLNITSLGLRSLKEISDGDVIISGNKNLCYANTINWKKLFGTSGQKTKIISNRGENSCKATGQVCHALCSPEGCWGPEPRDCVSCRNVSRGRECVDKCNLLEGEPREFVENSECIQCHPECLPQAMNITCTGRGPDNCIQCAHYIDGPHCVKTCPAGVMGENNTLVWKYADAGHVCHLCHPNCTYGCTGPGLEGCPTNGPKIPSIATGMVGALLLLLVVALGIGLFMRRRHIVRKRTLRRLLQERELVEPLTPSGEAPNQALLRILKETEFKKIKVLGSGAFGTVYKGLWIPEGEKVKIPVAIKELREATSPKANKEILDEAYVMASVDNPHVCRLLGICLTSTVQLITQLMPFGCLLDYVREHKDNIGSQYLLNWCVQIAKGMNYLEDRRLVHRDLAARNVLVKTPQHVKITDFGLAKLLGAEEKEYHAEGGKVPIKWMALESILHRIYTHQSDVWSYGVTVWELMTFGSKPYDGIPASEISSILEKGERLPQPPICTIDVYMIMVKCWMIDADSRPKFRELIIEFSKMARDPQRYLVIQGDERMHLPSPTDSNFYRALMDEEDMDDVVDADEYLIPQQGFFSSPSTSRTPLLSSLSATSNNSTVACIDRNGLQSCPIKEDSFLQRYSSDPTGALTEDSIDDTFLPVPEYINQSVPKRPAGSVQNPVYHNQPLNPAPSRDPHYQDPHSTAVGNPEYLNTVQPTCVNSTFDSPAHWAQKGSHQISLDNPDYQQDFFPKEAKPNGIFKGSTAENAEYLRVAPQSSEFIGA
Chain of MEK2 (P36507 whole entry): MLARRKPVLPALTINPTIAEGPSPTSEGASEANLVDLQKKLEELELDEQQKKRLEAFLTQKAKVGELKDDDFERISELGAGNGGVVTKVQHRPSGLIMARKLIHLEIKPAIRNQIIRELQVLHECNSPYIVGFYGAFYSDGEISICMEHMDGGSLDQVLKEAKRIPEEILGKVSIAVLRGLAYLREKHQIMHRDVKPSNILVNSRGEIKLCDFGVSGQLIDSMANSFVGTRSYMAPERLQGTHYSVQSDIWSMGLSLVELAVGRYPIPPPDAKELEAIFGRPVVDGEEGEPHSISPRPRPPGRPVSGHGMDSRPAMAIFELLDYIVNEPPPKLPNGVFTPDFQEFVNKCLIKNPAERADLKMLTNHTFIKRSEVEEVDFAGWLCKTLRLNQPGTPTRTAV
Chain of SRC (P12931 whole entry): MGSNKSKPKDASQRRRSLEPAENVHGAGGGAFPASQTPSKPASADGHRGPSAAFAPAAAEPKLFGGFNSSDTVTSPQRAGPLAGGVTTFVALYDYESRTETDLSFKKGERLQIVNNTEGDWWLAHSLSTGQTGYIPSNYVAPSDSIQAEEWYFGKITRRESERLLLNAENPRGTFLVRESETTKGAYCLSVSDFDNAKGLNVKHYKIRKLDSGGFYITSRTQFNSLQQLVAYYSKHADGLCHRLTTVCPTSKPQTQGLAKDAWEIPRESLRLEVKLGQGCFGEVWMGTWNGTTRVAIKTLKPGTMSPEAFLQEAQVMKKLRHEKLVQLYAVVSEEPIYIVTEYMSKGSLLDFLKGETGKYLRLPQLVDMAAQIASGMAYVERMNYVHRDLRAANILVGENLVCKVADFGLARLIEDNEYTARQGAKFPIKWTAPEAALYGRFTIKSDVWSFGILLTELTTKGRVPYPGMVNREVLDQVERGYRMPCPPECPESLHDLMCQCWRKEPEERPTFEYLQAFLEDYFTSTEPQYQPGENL
Chain of MLK1 (P80192 whole entry): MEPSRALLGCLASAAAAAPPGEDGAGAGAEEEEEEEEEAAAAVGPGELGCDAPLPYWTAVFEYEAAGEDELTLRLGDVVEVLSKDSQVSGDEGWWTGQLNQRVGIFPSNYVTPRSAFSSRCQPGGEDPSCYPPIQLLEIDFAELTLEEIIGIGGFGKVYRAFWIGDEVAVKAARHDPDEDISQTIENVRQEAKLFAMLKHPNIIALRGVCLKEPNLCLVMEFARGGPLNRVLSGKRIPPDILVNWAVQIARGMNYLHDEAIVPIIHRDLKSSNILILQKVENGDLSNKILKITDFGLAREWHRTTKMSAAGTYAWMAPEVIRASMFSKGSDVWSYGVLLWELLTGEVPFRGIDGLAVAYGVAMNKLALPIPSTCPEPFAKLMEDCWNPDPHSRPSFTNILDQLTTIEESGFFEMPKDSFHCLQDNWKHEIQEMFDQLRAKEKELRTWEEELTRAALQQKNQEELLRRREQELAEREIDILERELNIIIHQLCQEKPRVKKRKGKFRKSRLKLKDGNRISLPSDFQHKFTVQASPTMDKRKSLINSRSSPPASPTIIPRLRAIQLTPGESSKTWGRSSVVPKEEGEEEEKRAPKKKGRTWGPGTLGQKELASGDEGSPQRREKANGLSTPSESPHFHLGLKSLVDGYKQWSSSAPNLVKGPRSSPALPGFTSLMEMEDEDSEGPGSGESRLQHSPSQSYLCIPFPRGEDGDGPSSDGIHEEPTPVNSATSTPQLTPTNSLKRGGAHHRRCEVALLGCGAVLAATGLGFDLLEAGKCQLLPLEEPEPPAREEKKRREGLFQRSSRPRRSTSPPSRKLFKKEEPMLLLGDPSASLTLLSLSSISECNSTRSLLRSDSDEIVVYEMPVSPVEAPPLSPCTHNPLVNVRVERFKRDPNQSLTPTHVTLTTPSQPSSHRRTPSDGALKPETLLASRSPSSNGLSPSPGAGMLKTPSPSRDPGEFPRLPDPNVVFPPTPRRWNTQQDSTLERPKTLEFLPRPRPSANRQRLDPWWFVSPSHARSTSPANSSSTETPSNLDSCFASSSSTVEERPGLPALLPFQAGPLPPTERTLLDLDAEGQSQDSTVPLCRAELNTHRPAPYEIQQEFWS
Chain of RIOK2 (Q9BVS4 whole entry): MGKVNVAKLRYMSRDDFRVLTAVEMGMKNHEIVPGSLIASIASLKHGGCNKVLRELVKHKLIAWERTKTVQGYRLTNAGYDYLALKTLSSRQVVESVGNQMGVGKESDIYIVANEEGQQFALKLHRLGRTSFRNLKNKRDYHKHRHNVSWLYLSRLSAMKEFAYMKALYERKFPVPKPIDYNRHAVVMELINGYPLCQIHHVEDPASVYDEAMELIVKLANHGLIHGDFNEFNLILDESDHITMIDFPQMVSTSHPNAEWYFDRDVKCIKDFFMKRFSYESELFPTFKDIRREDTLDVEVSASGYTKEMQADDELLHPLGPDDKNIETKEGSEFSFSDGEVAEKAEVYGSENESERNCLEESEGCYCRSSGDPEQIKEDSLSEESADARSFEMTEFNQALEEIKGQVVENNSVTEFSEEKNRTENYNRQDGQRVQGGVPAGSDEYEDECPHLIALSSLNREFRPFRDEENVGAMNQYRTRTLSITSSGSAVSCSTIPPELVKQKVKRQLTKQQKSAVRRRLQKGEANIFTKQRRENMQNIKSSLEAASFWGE
Chain of PAK4 (O96013 whole entry): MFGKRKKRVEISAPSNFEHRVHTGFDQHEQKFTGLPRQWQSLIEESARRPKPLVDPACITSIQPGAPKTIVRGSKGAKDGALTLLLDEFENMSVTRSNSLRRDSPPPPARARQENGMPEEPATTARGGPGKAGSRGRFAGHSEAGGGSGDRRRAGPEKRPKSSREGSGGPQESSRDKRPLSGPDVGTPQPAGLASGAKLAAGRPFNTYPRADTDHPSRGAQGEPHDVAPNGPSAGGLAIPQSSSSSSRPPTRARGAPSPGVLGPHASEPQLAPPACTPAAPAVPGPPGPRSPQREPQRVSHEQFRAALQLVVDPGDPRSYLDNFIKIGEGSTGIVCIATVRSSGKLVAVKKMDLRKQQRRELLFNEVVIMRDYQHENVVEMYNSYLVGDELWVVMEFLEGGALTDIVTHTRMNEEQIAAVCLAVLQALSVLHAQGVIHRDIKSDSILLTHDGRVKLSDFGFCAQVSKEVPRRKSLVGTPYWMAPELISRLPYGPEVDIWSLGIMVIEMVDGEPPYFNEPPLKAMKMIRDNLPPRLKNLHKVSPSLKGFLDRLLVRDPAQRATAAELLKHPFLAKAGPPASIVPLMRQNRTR

C=C1CCCCCCCCCC(CO)C1=O (stereo not drawn) [EP009, 2-(Hydroxymethyl)-12-methylenecyclododecanone]
Kinase Activity (% of Control) (SRC): 100 % of Control | Kinase Activity (% of Control) (TIE2): 90 % of Control | Kinase Activity (% of Control) (RIOK2): 69 % of Control | Kinase Activity (% of Control) (PIK3C2B): 70 % of Control | Kinase Activity (% of Control) (PAK4): 100 % of Control | Kinase Activity (% of Control) (BRAF(V600E)): 76 % of Control | Kinase Activity (% of Control) (MLK1): 100 % of Control | inhibition of Aurora kinase A (AURKA) (AURKA): 45 % inhibition | Kinase Activity (% of Control) (AURKA; AURKA): 55 % of Control | Kinase Activity (% of Control) (p38-beta): 96 % of Control | Kinase Activity (% of Control) (TGFBR1): 100 % of Control | Kinase Activity (% of Control) (PRKCE): 100 % of Control | Kinase Activity (% of Control) (KIT(V559D, T670I)): 94 % of Control | AUC(0-t) ([1]; Sprague Dawley, rat, plasma, read-out: area under the concentration-time curve (AUC-t)): 2110 ng·h/mL and 6.1 µM·h | half-life ([1]; Sprague Dawley, rat, plasma, read-out: half-life (t1/2) (converted)): 1 h | Cmax ([1]; Sprague Dawley, rat, plasma, read-out: peak plasma concentration (Cmax)): 2000 ng/mL and 5.74 µM | plasma levels eight hours after dosing [1]: declined to the limit of detection | Kinase Activity (% of Control) (RAF1): 97 % of Control | Kinase Activity (% of Control) (MEK2): 84 % of Control | Kinase Activity (% of Control) (ERBB2): 100 % of Control | Kinase Activity (% of Control) (EGFR): 100 % of Control
